Where a SMILES comes first, the peptide text is derived from it. The star is where a group is joined. Cbz = O=C(OCc1ccccc1)*
Assays:
[1] = system: cell lines without ERCC1-202 isoform expression (A549 ERCC1-deficient); experiment: Cell cycle / DNA content by flow cytometry after cisplatin; assay type: cell-based, human; details: 30 and 300 nM for 48 hours
Description: To study effect of cisplatin on cell cycle arrest, cells were treated with 30 nM or 300 nM of cisplatin for 48 h. For high DNA content analysis, cells were blocked in G2/M cell cycle phase with Karyomax colcemid solution (Gibco-Invitrogen) at 0.1 μg/ml for 6 h.
DNA content was determined in ethanol-fixed cells, stained with propidium iodide and analyzed using a Becton Dickinson FACScalibur flow cytometer and the CellQuest Pro software.

ERCC1 protein isoforms = experiment: Western blot of ERCC1 protein isoforms after proteasome inhibition; assay type: cell-based, human; details: 2 μM for 24 h
Description: Proteins were extracted by lysis in RIPA buffer (50 mM Tris, 150 mM NaCl, 5 mM EDTA, 0.5% sodium deoxycholic acid, 0.5% NP-40, 0.1% SDS) supplemented with a protease inhibitor cocktail (Complete; Roche Molecular). For nucleus and cytoplasm protein, a first extraction and separation was done with a buffer containing 10 mM HEPES, 10 mM KCl, 1 mM DTT, 1 mM PMSF and protease inhibitor cocktail supplemented with 0.3% NP40. The nucleus fraction was next resuspended in a buffer containing 20 mM HEPES and 400 mM NaCl. Protein were then separated by SDS-PAGE and transferred to nitrocellulose membranes by the iBlot® 7-Minute Blotting System (Invitrogen). Blots were incubated with primary and secondary peroxidase-conjugated antibodies and chemiluminescent detection was done using the Dura HRP Substrate (Thermo scientific).
For proteasome inhibition, cells were treated with MG132 (Merck) at 2 μM for 24 h.

With `N.N.[Cl][Pt][Cl]` [cisplatin] the “cells blocked in G2/M cell cycle phase” value [1] was 60-80%.
For `CC(C)C[C@@H](C=O)NC(=O)[C@H](CC(C)C)NC(=O)[C@H](CC(C)C)NC(=O)OCc1ccccc1` [MG132] (Cbz-Leu-Leu-Leu-aldehyde), the “ERCC1 isoform protein expression level after proteasome inhibition” value (ERCC1 protein isoforms) was “increase in ERCC1-201, -203 and -204 expression level”.

From US9702875B2 (priority 2006, dated 2017)
